From US9688698B2, “Heteroaromatic compounds and their use as dopamine D1 ligands” (PFIZER INC., priority 2014, dated 2017) come the findings set out here.

Each structure is given as a SMILES string. Structures can show the parent of a compound that is named as a salt.

The experiment has as its target T1, Human D1 Receptor (Homo sapiens, UniProt P21728).
T1 construct: expressed in transfected cells; host or cells: LTK cell line over-expressing the D1 receptor
Kind of experiment: Human D1 Receptor Binding Assay ([3H]-SCH23390 competition binding). The note with it: over-expressing LTK human cell lines; 0.5 nM [3H]-SCH23390; 30 min at 37° C.; footnote a = geometric mean of ≧5 determinations, footnote b = single determination; read-out: Human D1 Receptor Binding, Ki (nM); Geometric mean of 2-4 determinations (unless otherwise indicated). How it is done:
The affinity of the compounds described herein was determined by competition binding assays similar to those described in Ryman-Rasmussen et al., “Differential activation of adenylate cyclase and receptor internalization by novel dopamine D1 receptor agonists”, Molecular Pharmacology 68(4):1039-1048 (2005).
D1 binding assays were performed using over-expressing LTK human cell lines. […] These ligand and tissue concentrations were used in time course studies to determine linearity and equilibrium conditions for binding. Binding was at equilibrium with the specified amount of tissue in 30 minutes at 37° C. […] The pellet was resuspended in assay buffer [50 mM Tris (pH 7.4@RT) containing 4 mM MgSO4 and 0.5 mM EDTA]. […] Non-specific binding was determined by radioligand binding in the presence of a saturating concentration of (+)-Butaclamol (10 μM), a D1 antagonist. After a 30 minute incubation period at 37° C., assay samples were rapidly filtered through Unifilter-96 GF/B PEI-coated filter plates and rinsed with 50 mM Tris buffer (pH 7.4 at 4° C.). […] The IC50 value (concentration at which 50% inhibition of specific binding occurs) was calculated by linear regression of the concentration-response data in Microsoft Excel. Ki values were calculated according to the Cheng-Prusoff equation: […]

T1 sequence (P21728 whole entry): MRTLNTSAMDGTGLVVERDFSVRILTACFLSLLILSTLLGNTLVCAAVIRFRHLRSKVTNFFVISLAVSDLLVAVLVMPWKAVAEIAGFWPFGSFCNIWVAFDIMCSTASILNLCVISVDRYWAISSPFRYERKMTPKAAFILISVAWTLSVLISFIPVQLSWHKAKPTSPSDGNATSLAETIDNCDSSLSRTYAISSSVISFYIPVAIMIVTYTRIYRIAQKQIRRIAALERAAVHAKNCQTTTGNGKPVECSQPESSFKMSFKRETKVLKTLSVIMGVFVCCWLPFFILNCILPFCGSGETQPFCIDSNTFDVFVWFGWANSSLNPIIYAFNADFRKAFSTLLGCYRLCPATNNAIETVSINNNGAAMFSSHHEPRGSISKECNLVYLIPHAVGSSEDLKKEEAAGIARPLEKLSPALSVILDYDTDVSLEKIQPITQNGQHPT

For orientation: Ki means a dissociation constant, usually derived from enzyme kinetics or from competition with a known ligand. On to `Cc1n[nH]c(=O)c(C)c1-c1ccc(Oc2nccc3ncsc23)cc1` [Example 28, 4,6-dimethyl-5-[4-([1,3]thiazolo[5,4-c]pyridin-4-yloxy)phenyl]pyridazin-3(2H)-one], for which the inhibition constant (Ki) was 25 nM. Take `Cc1ncnc(C)c1-c1ccc(Oc2nccc3ncsc23)cc1Cl` [Example 31, 4-[3-chloro-4-(4,6-dimethylpyrimidin-5-yl)phenoxy][1,3]thiazolo[5,4-c]pyridine]: the inhibition constant (Ki) came out at 71.9 nM. The same measure for `Cc1ncnc(C)c1-c1cc(F)c(Oc2nccc3ncsc23)c(F)c1` [Example 32, 4[4-(4,6-dimethylpyrimidin-5-yl)-2,6-difluorophenoxy][1,3]thiazolo[5,4-c]pyridine]: 1060 nM; for `Cc1ncnc(C)c1-c1cc(F)c(Oc2ncnc3ccsc23)c(F)c1` [Example 33, 4-[4-(4,6-dimethylpyrimidin-5-yl)-2,6-difluorophenoxy]thieno[3,2-d]pyrimidine]: 864 nM; for `Cc1cc(Oc2nccc3ncsc23)c(F)cc1-c1c(C)ncnc1C` [Example 34, 4-[4-(4,6-dimethylpyrimidin-5-yl)-2-fluoro-5-methylphenoxy][1,3]thiazolo[5,4-c]pyridine]: 151 nM. For `Cc1ncnc(C)c1-c1ccc(Oc2ncnc3ccsc23)cc1C#N` [Example 35, 2-(4,6-dimethylpyrimidin-5-yl)-5-(thieno[3,2-d]pyrimidin-4-yloxy)benzonitrile], the inhibitory constant (Ki) stood at 480 nM. With `Cc1ncnc(C)c1-c1ccc(Oc2nccc3ccsc23)cc1Cl` [Example 36, 7-[3-chloro-4-(4,6-dimethylpyrimidin-5-yl)phenoxy]thieno[2,3-c]pyridine], the Ki was determined as 6.7 nM.

In the case of `Cc1ncnc(C)c1-c1cc(F)c(Oc2nccc3ccsc23)c(F)c1` [Example 37, 7-[4-(4,6-dimethylpyrimidin-5-yl)-2,6-difluorophenoxy]thieno[2,3-c]pyridine], the Ki was 79.8 nM. Turning to `Cc1cc(Oc2nccc3ccsc23)c(F)cc1-c1c(C)ncnc1C` [Example 38, 7-[4-(4,6-dimethylpyrimidin-5-yl)-2-fluoro-5-methylphenoxy]thieno[2,3-c]pyridine], the Ki is 7.9 nM. As for `Cc1ncnc(C)c1-c1ccc(Oc2nccc3ccsc23)c(F)c1` [Example 39, 7-[4-(4,6-dimethylpyrimidin-5-yl)-2-fluorophenoxy]thieno[2,3-c]pyridine], the Ki turned out to be 28.2 nM. The value for `Cc1ncnc(C)c1-c1ccc(Oc2nccc3ccsc23)c(F)c1C` [Example 40, 7-[4-(4,6-dimethylpyrimidin-5-yl)-2-fluoro-3-methylphenoxy]thieno[2,3-c]pyridine] was 40.7 nM; that for `Cc1ncnc(C)c1-c1cc(F)c(Oc2nccc3ccsc23)cc1F` [Example 41, 7-[4-(4,6-dimethylpyrimidin-5-yl)-2,5-difluorophenoxy]thieno[2,3-c]pyridine] was 24.3 nM. In the case of `COc1cc(Oc2nccc3ccsc23)ccc1-c1c(C)cnnc1C` [Example 42, 7-[4-(3,5-dimethylpyridazin-4-yl)-3-methoxyphenoxy]thieno[2,3-c]pyridine], the Ki is 17.7 nM. Turning to `Cc1cnnc(C)c1-c1ccc(Oc2nccc3ccsc23)cc1C#N` [Example 43, 2-(3,5-dimethylpyridazin-4-yl)-5-(thieno[2,3-c]pyridin-7-yloxy)benzonitrile, trifluoroacetate salt], the Ki came out at 46.3 nM.

On to `COc1cc(Oc2nccc3ccsc23)ccc1-c1cccnc1C` [Example 44, 7-[3-methoxy-4-(2-methylpyridin-3-yl)phenoxy]thieno[2,3-c]pyridine, trifluoroacetate salt], for which the Ki was determined as 16.4 nM. For `Cc1cnnc(C)c1-c1ccc(Oc2nccc3ccsc23)cc1F` [Example 47, 7-[4-(3,5-dimethylpyridazin-4-yl)-3-fluorophenoxy]thieno[2,3-c]pyridine], the Ki turned out to be 6.1 nM.

For the compound `COc1cc(Oc2nccc3ccsc23)ccc1-c1c(C)ncnc1C` [Example 48, 7-[4-(4,6-dimethylpyrimidin-5-yl)-3-methoxyphenoxy]thieno[2,3-c]pyridine], the Ki amounted to 13.5 nM. Take `Cc1ncnc(C)c1-c1ccc(Oc2nccc3ccsc23)cc1C#N` [Example 49, 2-(4,6-dimethylpyrimidin-5-yl)-5-(thieno[2,3-c]pyridin-7-yloxy)benzonitrile]: the inhibitory constant (Ki) was 16.3 nM. Regarding `Cc1ncnc(C)c1-c1ccc(Oc2nccc3ccsc23)cc1F` [Example 50, 7-[4-(4,6-dimethylpyrimidin-5-yl)-3-fluorophenoxy]thieno[2,3-c]pyridine], the inhibition constant (Ki) stood at 6.7 nM. Regarding `Cc1nc2cnccc2n1-c1ccc(Oc2nccc3ccsc23)cc1` [Example 51, 2-methyl-1-[4-(thieno[2,3-c]pyridin-7-yloxy)phenyl]-1H-imidazo[4,5-c]pyridine, trifluoroacetate salt], the inhibition constant (Ki) was found to be 89.5 nM. Regarding `Cc1cc(Oc2nccc3ccoc23)ccc1-c1c(C)ncnc1C#N` [Example 52, 5-[4-(furo[2,3-c]pyridin-7-yloxy)-2-methylphenyl]-6-methylpyrimidine-4-carbonitrile], the inhibitory constant (Ki) was 212 nM. With `Cc1cc(Oc2nccc3cc[nH]c23)ccc1-c1nccnc1C` [Example 53, 7-[3-methyl-4-(3-methylpyrazin-2-yl)phenoxy]-1H-pyrrolo[2,3-c]pyridine], the inhibition constant Ki worked out at 1890 nM. Turning to `Cc1cc(Oc2nccc3cc[nH]c23)ccc1-c1c(C)ncc2nccn12` [Example 54, 6-methyl-5-[2-methyl-4-(1H-pyrrolo[2,3-c]pyridin-7-yloxy)phenyl]imidazo[1,2-a]pyrazine], the Ki was 68.9 nM. Turning to `Cc1cc(Oc2nccc3cc[nH]c23)ccc1-c1c(C)ncnc1C#N` [Example 55, 6-methyl-5-[2-methyl-4-(1H-pyrrolo[2,3-c]pyridin-7-yloxy)phenyl]pyrimidine-4-carbonitrile], the inhibition constant (Ki) amounted to 614 nM.

Take `Cc1nc2ccnc(Oc3ccc(-c4c(C)n[nH]c(=O)c4C)c(C)c3)c2s1` [Example 56, 4,6-dimethyl-5-{2-methyl-4-[(2-methyl[1,3]thiazolo[5,4-c]pyridin-4-yl)oxy]phenyl}pyridazin-3(2H)-one]: the Ki stood at 106 nM.

In the case of `Cc1cc(Oc2ncnc3ncsc23)ccc1-c1c(C)ncnc1C` [Example 57, 7-[4-(4,6-dimethylpyrimidin-5-yl)-3-methylphenoxy][1,3]thiazolo[4,5-d]pyrimidine], the Ki was determined as 2340 nM. As to `Cc1cc(Oc2nccc3ncsc23)ccc1-c1c(C)ncnc1C` [Example 58, 4-[4-(4,6-dimethylpyrimidin-5-yl)-3-methylphenoxy][1,3]thiazolo[5,4-c]pyridine], the inhibition constant Ki is 75.1 nM. As for `COc1cc(Oc2nccc3ncsc23)ccc1-c1c(C)ncnc1C` [Example 59, 4-[4-(4,6-dimethylpyrimidin-5-yl)-3-methoxyphenoxy][1,3]thiazolo[5,4-c]pyridine], the Ki worked out at 185 nM.

As for `Cc1cc(Oc2nccc3ncsc23)ccc1-c1c(C)cnnc1C` [Example 60, 4-[4-(3,5-dimethylpyridazin-4-yl)-3-methylphenoxy][1,3]thiazolo[5,4-c]pyridine], the inhibition constant Ki is 65.3 nM.

Take `Cc1cnnc(C)c1-c1ccc(Oc2nccc3ncsc23)cc1F` [Example 63, 4-[4-(3,5-dimethylpyridazin-4-yl)-3-fluorophenoxy][1,3]thiazolo[5,4-c]pyridine]: the Ki stood at 109 nM. Take `Cc1ncnc(C)c1-c1ccc(Oc2nccc3ncsc23)c(F)c1C` [Example 66, 4-[4-(4,6-dimethylpyrimidin-5-yl)-2-fluoro-3-methylphenoxy][1,3]thiazolo[5,4-c]pyridine]: the Ki worked out at 175 nM. As to `Cc1n[nH]c(=O)c(C)c1-c1ccc(Oc2ncnc3ccsc23)cc1` [Example 67, 4,6-dimethyl-5-[4-(thieno[3,2-d]pyrimidin-4-yloxy)phenyl]pyridazin-3(2H)-one], the Ki turned out to be 17.7 nM. In the case of `Cc1c(-c2ccc(Oc3ncnc4ccsc34)cc2)n(C)c(=O)[nH]c1=O` [Example 68, 1,5-dimethyl-6-[4-(thieno[3,2-d]pyrimidin-4-yloxy)phenyl]pyrimidine-2,4(1H,3H)-dione], the inhibition constant (Ki) was found to be 15.6 nM. The same measure for `Cc1cc(Oc2nccc3cc[nH]c23)ccc1-c1c(C)n[nH]c(=O)c1C` [Example 69, 4,6-dimethyl-5-[2-methyl-4-(1H-pyrrolo[2,3-c]pyridin-7-yloxy)phenyl]pyridazin-3(2H)-one]: 126 nM.
